Reference: patent publication EP1059033A1, “INDUSTRIAL ANTIBACTERIAL/ANTIFUNGAL AGENTS, ALGICIDES AND ANTI-BIOLOGICAL ADHESION AGENTS CONTAINING BENZYLAMINES” (Nissan Chemical Industries, Ltd., priority 1998, dated 1999)
Values after ≈ are worked out from the molar mass of the structure shown. Where two headings read alike, the source gives them in different places. Values belong to the compound of their own block, whether it stands above or below them.

Legend:
[1] = test system: Trichophyton mentagrophytes; assay: Agar dilution MIC (Example 2); format: cell-based; settings: 168 h, agar plate, 27 °C, 7 days
Protocol: (§1) Series of diluted samples (20000, 10000, 5000, 2500, 2000, 1250, 625, 313, 156, 78, 39, 20, 10, 5, 2.5, 1.25 mg/l) of the compounds of the invention were prepared using dimethylsulfoxide. A sensitive culture medium-N (Nissui Seiyaku Co.) was used for bacteria and a potato dextrose agar culture medium (Nissui Seiyaku Co.) was used for fungi. 0.5 ml of each sample was added to and mixed with 9.5 ml of the culture medium, poured into a Petri dish and solidified to obtain a plate. As a result, the concentration of the compounds of the invention in the agar culture medium were 1000, 500, 250, 125, 100, 62.5, 31.3, 15.6, 7.8, 3.9, 2.0, 1.0, 0.5, 0.25, 0.125, 0.062 mg/l. The bacterium inoculated were cultured in a bouillon for the assay of sensitivity (Nissui Seiyaku Co.) at 37 °C for 20 hours, and the fungi were cultured in the potato dextrose agar culture medium (Nissui Seiyaku Co.) for 10 days and then a 10^6 CFU/ml suspension was prepared from each of them. A test bacteria or fungi suspension was streaked on an agar plate containing the compound of the present invention with platinum wire loop, and the agar plate was cultured at 37±1 °C for 18 to 20 hours for bacteria or at 27 °C for 7 days for fungi. A concentration at which no growth was seen was taken as minimum inhibitory concentration [MIC(mg/l)]. Symbols in the table mean the followings; • A: Bacillus subtilis, • B: Trichophyton mentagrophytes, • C: Rhodotorula mucilaginosa.

[2] = test system: Bacillus subtilis; assay: Agar dilution MIC (Example 2); format: cell-based; settings: agar plate, 37±1 °C, 18 to 20 hours
Protocol: as §1

[3] = test system: Staphylococcus aureus; assay: Agar dilution MIC (Example 3); format: cell-based; settings: agar plate, 37±1 °C, 18 to 20 hours
Protocol: (§2) Series of diluted samples (20000, 10000, 5000, 2500, 1250, 625, 313, 156, 78, 39 mg/l) of the compounds of the invention were prepared using dimethylsulfoxide. A sensitive culture medium-N (Nissui Seiyaku Co.) was used for bacteria and a potato dextrose agar culture medium (Nissui Seiyaku Co.) was used for fungi. 0.5 ml of each sample was added to and mixed with 9.5 ml of the culture medium, poured into a Petri dish and solidified to obtain a plate. As a result, the concentration of the compounds of the invention in the agar culture medium were 1000, 500, 250, 125, 62.5, 31.3, 15.6, 7.8, 3.9, 2.0 mg/l. The bacterium inoculated were cultured in a bouillon for the assay of sensitivity (Nissui Seiyaku Co.) at 37 °C for 20 hours, and the fungi were cultured in the potato dextrose agar culture medium (Nissui Seiyaku Co.) for 10 days and then a 10^6 CFU/ml suspension was prepared from each of them. A test bacteria or fungi suspension was streaked on an agar plate containing the compound of the present invention with platinum wire loop, and the agar plate was cultured at 37±1 °C for 18 to 20 hours for bacteria or at 27 °C for 7 days for fungi. A concentration at which no growth was seen was taken as minimum inhibitory concentration (MIC). Symbols in the tables mean the followings; • A: Bacillus subtilis, • B: Trichophyton mentagrophytes, • C: Staphylococcus aureus, • D: Aspergillus niger, • E: Penicillium funiculosum, • F: Candida albicans, • G: Micrococcus luteus, • H: Corynebacterium aquaticum, • I: Chaetomium globosum, • J: Fusarium moniliforme, • K: Saccharomyces cerevisiae, • L: Rhodotorula rubra, • M: Cladosporium cladosporioides, • N: Alternaria alternata.

[4] = test system: Trichophyton mentagrophytes; assay: Agar dilution MIC (Example 3); format: cell-based; settings: 168 h, agar plate, 27 °C, 7 days
Protocol: as §2

[5] = test system: Bacillus subtilis; assay: Agar dilution MIC (Example 3); format: cell-based; settings: agar plate, 37±1 °C, 18 to 20 hours
Protocol: as §2

[6] = test system: freshwater green alga (Selenastrum capricornutum); assay: Inhibition of propagation of freshwater green alga (Example 4); format: cell-based; settings: for inhibition at 0.05 ppm: read-out: Propagation inhibiting rate(%) 50ppb; for inhibition at 0.5 ppm: read-out: Propagation inhibiting rate(%) 500ppb
Protocol: A predetermined amount of each of the compounds of the invention was dissolved in a culture medium containing 10^5 /ml of a freshwater green alga (Selenastrum capricornutum) at a logarithmic growth phase to prepare samples having a concentration of the compound of the invention in the medium of 500 ppb and 50ppb respectively. The samples were stationary cultured at 23±1 °C for […] under continuous illumination.
After 72 hours, the number of cells was measured using a hemacytometer to obtain propagation rate. The propagation inhibiting rate was calculated from comparison with the non-treated lot.

[7] = test system: Trichophyton mentagrophytes; format: cell-based; settings: 72 h, 100 ppm
Protocol: 31.3 ml of Trichophyton mentagrophytes to be tested was added to 125 ml of a potato dextrose agar culture medium (Nissui Seiyaku Co.). The medium was stirred not to foam the solutions, poured into plates uniformly and solidified.
Thereafter, predetermined amounts of the compounds of the invention were weighted and diluted with acetone to predetermined concentrations.
Paper disks were impregnated with samples containing predetermined amounts of the compounds of the invention, laid on a filter, dried with air and placed on a plate containing test microbe at equal intervals.
Trichophyton mentagrophytes was cultured at 28 °C for 3 days in a thermostatic chamber and the diameter of each inhibiting zone was measured to evaluate the activity of each compound. Symbols in the table mean the followings; • A: Trichophyton mentagrophytes, • ++: strongly inhibiting zone (equal to or more than 21 mm) is observed, • +: inhibiting zone (10 to 20 mm) is observed, • -: no inhibiting zone is observed.

[8] = test system: Penicillium funiculosum; assay: Agar dilution MIC (Example 3); format: cell-based; settings: Talaromyces funiculosus, 168 h, agar plate, 27 °C, 7 days
Protocol: as §2

[9] = test system: Candida albicans; assay: Agar dilution MIC (Example 3); format: cell-based; settings: 168 h, agar plate, 27 °C, 7 days
Protocol: as §2

[10] = test system: Cladosporium cladosporioides; assay: Agar dilution MIC (Example 3); format: cell-based; settings: 168 h, agar plate, 27 °C, 7 days
Protocol: as §2

[11] = test system: Rhodotorula rubra; assay: Agar dilution MIC (Example 3); format: cell-based; settings: 168 h, agar plate, 27 °C, 7 days
Protocol: as §2

[12] = test system: Alternaria alternata; assay: Agar dilution MIC (Example 3); format: cell-based; settings: 168 h, agar plate, 27 °C, 7 days
Protocol: as §2

[13] = test system: Chaetomium globosum; assay: Agar dilution MIC (Example 3); format: cell-based; settings: 168 h, agar plate, 27 °C, 7 days
Protocol: as §2

[14] = test system: Corynebacterium aquaticum; assay: Agar dilution MIC (Example 3); format: cell-based; settings: Leifsonia aquatica, agar plate, 37±1 °C, 18 to 20 hours
Protocol: as §2

[15] = test system: Fusarium moniliforme; assay: Agar dilution MIC (Example 3); format: cell-based; settings: Fusarium verticillioides, 168 h, agar plate, 27 °C, 7 days
Protocol: as §2

[16] = test system: Saccharomyces cerevisiae; assay: Agar dilution MIC (Example 3); format: cell-based; settings: 168 h, agar plate, 27 °C, 7 days
Protocol: as §2

[17] = test system: Aspergillus niger; assay: Agar dilution MIC (Example 3); format: cell-based; settings: 168 h, agar plate, 27 °C, 7 days
Protocol: as §2

[18] = test system: seawater diatom [Nitzschia closterium]; assay: Inhibition of propagation of seawater diatom (Example 5); format: cell-based; settings: Cylindrotheca closterium, 72 h, read-out: Propagation inhibiting rate(%) 500ppb
Protocol: A predetermined amount of each of the compounds of the invention was dissolved in culture media containing 10^5 /ml of a seawater diatom [Nitzschia closterium] at a logarithmic growth phase to prepare samples having a concentration of the compound in the medium of 500 ppb. The samples were stationary cultured at 22±1 °C for […] under continuous illumination.
After 72 hours, cells were collected by centrifugation and disrupted by addition of methanol to extract chlorophyll, and the amount of chlorophyll was measured from absorbance using a spectrophotometer to obtain propagation rate. The propagation inhibiting rate was calculated from comparison with the non-treated lot.

[19] = test system: blue mussel; assay: Antifouling (adhesion repellent) activity against blue mussel (Example 7); format: in vivo, Mytilus edulis; design: key: ++: not adhered in the zone and strong repellent effect is observed; +: adhesion in zone is observed but most of them adhered out of zone and repellent effect is observed; -: adhered in and out of zone alike and repellent effect is not observed; settings: Amount of chemical 2.0 mg on 4 cm-diameter zone; seawater, dark, 3 hours
Protocol: The compound of the invention was completely dissolved in 1 ml of acetone and the resulting solution was uniformly applied to a 4 cm-diameter zone drawn on a test plate. A zone coated with acetone alone as blank and zones coated with 1.0 mg and 0.5 mg of copper sulfate as a comparison chemical were also prepared. After drying, four blue mussel having a shell length of about 2 to 2.5 cm were adhered around each zone using a rubber piece as a spacer. The thus prepared test plate was immersed in a water tank to which seawater ran and left to stand in the dark for 3 hours.
The adhesion controlling effect (adhesion repellent activity) was obtained from comparison with copper sulfate used as a comparison chemical.
The evaluation of adhesion repellent activity was based on "Evaluation method of adhesion repellent substance to marine adhesion organisms using Mytilus edulis" written by Kazuo Ina and Hideo Etoh (Chemistry and Biology, vol.28 (No.2), pp.132-138, 1990).
Symbols in the table mean the followings; • ++: not adhered in the zone and strong repellent effect is observed, • +: adhesion in zone is observed but most of them adhered out of zone and repellent effect is observed, • -: adhered in and out of zone alike and repellent effect is not observed.

[20] = test system: freshwater green alga (Scenedesmus pannonicus); assay: Inhibition of propagation of freshwater algae (Example 6); format: cell-based; settings: Desmodesmus pannonicus, 500ppb
Protocol: A predetermined amount each of the compounds of the invention was dissolved in a culture medium containing 10^5 /ml of a freshwater alga at a logarithmic growth phase to prepare samples having a concentration of the compound of the invention in the medium of 500 ppb and 50 ppb respectively. A shaking culture at 100 rpm was performed for […] under continuous illumination at 20±2 °C for freshwater diatom and at 23±2 °C for other algae.
After 72 hours and 168 hours, the […] of cells was measured using a hemacytometer to obtain propagation rate. The propagation inhibiting rate was calculated from comparison with the non-treated lot. Symbols in the tables mean the followings; • A: freshwater green alga (Chlorella pyrenoidosa), • B: freshwater blue-green alga (Microcystis aeruginosa), • C: freshwater diatom (Diatoma elongatum), • D: freshwater green alga (Scenedesmus pannonicus).

[21] = 500ppb, after 72 hours, cell number vs non-treated lot

SMILES: CN(Cc1ccc(C(C)(C)C)cc1)Cc1ccc(Cl)c(Cl)c1 [Compound 3]
MIC [1]: < 2 µg/mL
MIC [2]: 125 µg/mL (≈ 372 µM)
MIC [3]: 125 µg/mL (≈ 372 µM)
MIC [4]: < 2 µg/mL
MIC [5]: 125 µg/mL (≈ 372 µM)
inhibition at 0.05 ppm ([6]; 72 h): 90%
inhibition at 0.5 ppm ([6]; 72 h): 94%
Judgment (Target bacteria: A) [7]: + (inhibiting zone (10 to 20 mm) is observed)

MIC [1]: < 2 µg/mL
MIC [8]: 15.6 µg/mL (≈ 52.8 µM)
MIC [9]: 62.5 µg/mL (≈ 212 µM)
MIC [10]: 31.3 µg/mL (≈ 106 µM)
MIC [11]: 63 µg/mL (≈ 213 µM)
MIC [12]: 31.3 µg/mL (≈ 106 µM)
MIC [13]: 31.3 µg/mL (≈ 106 µM)
MIC [4]: < 2 µg/mL
MIC [14]: 31.3 µg/mL (≈ 106 µM)
MIC [15]: 31.3 µg/mL (≈ 106 µM)
MIC [16]: 63 µg/mL (≈ 213 µM)
MIC [17]: 15.6 µg/mL (≈ 52.8 µM)
SMILES: Cc1cccc(CN(C)Cc2ccc(C(C)(C)C)cc2)c1C [Compound 4]
inhibition at 0.5 ppm [18]: 70%
inhibition at 0.05 ppm ([6]; 50ppb, after 72 hours, cell number vs non-treated lot): 64%
inhibition at 0.5 ppm [6, 21]: 95%
Judgment (Target bacteria: A) [7]: ++ (strongly inhibiting zone (equal to or more than 21 mm) is observed)

MIC [1]: 1 µg/mL (≈ 3.41 µM)
MIC [4]: < 2 µg/mL
SMILES: CN(Cc1ccc(C(C)(C)C)cc1)C1CCc2ccccc21 (centres unmarked) [Compound 7]
Judgment (adhesion repellent activity against blue mussel) [19]: ++
inhibition at 0.5 ppm ([20]; 72hr, read-out: Propagation inhibiting rate (%) 500ppb 72hr): 92%
inhibition at 0.5 ppm ([20]; 168hr, read-out: Propagation inhibiting rate (%) 500ppb 168hr): 99%
inhibition at 0.5 ppm [18]: 91%
inhibition at 0.5 ppm [6, 21]: 62%
Judgment (Target bacteria: A) [7]: ++ (strongly inhibiting zone (equal to or more than 21 mm) is observed)
